Measurements from PubChem BioAssay AID330 (DTP/NCI, 2004).
Several values for one entry are separate records, joined by “and”; a condition that tells them apart may be missing. Identical values can stand only once. Toxic doses and inconclusive results are not listed. The calls were made as follows: active = survival T/C of 150% or more; inactive = T/C below 125% in these data.

Test system: P388 leukemia ip, CD2F1 mice, survival T/C
Test: NCI In Vivo Anticancer Drug Screen. Data for tumor model P388 Leukemia (intraperitoneal) in CD2F1 (CDF1) mice
Settings: endpoint: median survival time, higher = longer survival
Outline: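 Mice carrying the transplanted tumor received test compound or vehicle. Survival was recorded in each group, and the value is the treated-group measurement divided by that of the vehicle-treated control group.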

[1] = dose: 50.0 mg/kg/injection, schedule: Q01DX005 (ip), vehicle: Klucel (hydroxypropylcellulose) (HPC)
[2] = dose: 100.0 mg/kg/injection, schedule: Q01DX005 (ip), vehicle: Klucel (hydroxypropylcellulose) (HPC)
[3] = dose: 200.0 mg/kg/injection, schedule: Q01DX005 (ip), vehicle: Klucel (hydroxypropylcellulose) (HPC)
[4] = dose: 50.0 mg/kg/injection, schedule: Q01DX005 (ip), vehicle: saline with Tween-80
[5] = dose: 100.0 mg/kg/injection, schedule: Q01DX005 (ip), vehicle: saline with Tween-80
[6] = dose: 25.0 mg/kg/injection, schedule: Q01DX005 (ip), vehicle: saline with Tween-80
[7] = dose: 100.0 mg/kg/injection, schedule: Q01DX001 (ip), vehicle: Klucel (hydroxypropylcellulose) (HPC)
[8] = dose: 60.0 mg/kg/injection, schedule: Q01DX005 (ip), vehicle: saline with Tween-80
[9] = dose: 120.0 mg/kg/injection, schedule: Q01DX005 (ip), vehicle: saline with Tween-80
[10] = dose: 240.0 mg/kg/injection, schedule: Q01DX005 (ip), vehicle: saline with Tween-80
[11] = dose: 12.5 mg/kg/injection, schedule: Q01DX009 (ip), vehicle: saline
[12] = dose: 25.0 mg/kg/injection, schedule: Q01DX009 (ip), vehicle: saline
[13] = dose: 50.0 mg/kg/injection, schedule: Q01DX009 (ip), vehicle: saline

Measured: T/C

COc1ccc2c(c1OC)C(=O)O/C2=C/c1c(CCN(C)C)cc2c(c1O)OCO2
inactive: dose: 53.0 micrograms/kg/injection, schedule: Q01DX005 (ip), vehicle: Klucel (hydroxypropylcellulose) (HPC) 104 % of control | dose: 105.0 micrograms/kg/injection, schedule: Q01DX005 (ip), vehicle: Klucel (hydroxypropylcellulose) (HPC) 91 % of control | dose: 210.0 micrograms/kg/injection, schedule: Q01DX005 (ip), vehicle: Klucel (hydroxypropylcellulose) (HPC) 96 % of control | dose: 420.0 micrograms/kg/injection, schedule: Q01DX005 (ip), vehicle: Klucel (hydroxypropylcellulose) (HPC) 102 % of control

CN1C(=S)C(=N)OC1c1ccccc1F (stereo unspecified)
inactive: dose: 60.0 mg/kg/injection, schedule: Q01DX005 (ip), vehicle: Klucel (hydroxypropylcellulose) (HPC) 106 % of control | dose: 120.0 mg/kg/injection, schedule: Q01DX005 (ip), vehicle: Klucel (hydroxypropylcellulose) (HPC) 105 % of control | dose: 240.0 mg/kg/injection, schedule: Q01DX005 (ip), vehicle: Klucel (hydroxypropylcellulose) (HPC) 103 % of control

C=CCSc1nc2ccc(N3C(=O)CCC3=O)cc2s1
inactive: dose: 12.5 mg/kg/injection, schedule: Q01DX009 (ip), vehicle: Klucel (hydroxypropylcellulose) (HPC) 105 % of control | dose: 25.0 mg/kg/injection, schedule: Q01DX009 (ip), vehicle: Klucel (hydroxypropylcellulose) (HPC) 103 % of control | dose: 50.0 mg/kg/injection, schedule: Q01DX009 (ip), vehicle: Klucel (hydroxypropylcellulose) (HPC) 101 % of control and 102 % of control | dose: 100.0 mg/kg/injection, schedule: Q01DX009 (ip), vehicle: Klucel (hydroxypropylcellulose) (HPC) 92 % of control | dose: 200.0 mg/kg/injection, schedule: Q01DX009 (ip), vehicle: Klucel (hydroxypropylcellulose) (HPC) 89 % of control

COc1ccc(N=C/C=C/c2ccccc2)cc1
inactive: dose: 100.0 mg/kg/injection, schedule: Q01DX009 (ip), vehicle: saline with Tween-80 118 % of control | dose: 200.0 mg/kg/injection, schedule: Q01DX009 (ip), vehicle: saline with Tween-80 118 % of control | dose: 400.0 mg/kg/injection, schedule: Q01DX009 (ip), vehicle: saline with Tween-80 118 % of control

CSc1nc2n(C)cc(C)cc-2c(=O)n1
inactive: dose: 25.0 mg/kg/injection, schedule: Q01DX001 (ip), vehicle: saline with Tween-80 97 % of control | dose: 50.0 mg/kg/injection, schedule: Q01DX001 (ip), vehicle: saline with Tween-80 97 % of control | dose: 100.0 mg/kg/injection, schedule: Q01DX001 (ip), vehicle: saline with Tween-80 99 % of control

O=C1C=CC(=O)C(c2ccccc2)=C1
inactive: [1] 100 % of control | [2] 105 % of control | [3] 112 % of control

N#C/C(=N\N=C(/C#N)c1ccc(Cl)cc1)c1ccc(Cl)cc1
inactive: [4] 97 % of control | [5] 94 % of control | dose: 200.0 mg/kg/injection, schedule: Q01DX005 (ip), vehicle: saline with Tween-80 88 % of control

COc1ccc(C2=C(Cl)C(=O)N(c3ccc(O)cc3)C(=O)C2(Cl)Cl)cc1
inactive: dose: 100.0 mg/kg/injection, schedule: Q04DX002 (ip), vehicle: Klucel (hydroxypropylcellulose) (HPC) 106 % of control | dose: 200.0 mg/kg/injection, schedule: Q04DX002 (ip), vehicle: Klucel (hydroxypropylcellulose) (HPC) 107 % of control | dose: 400.0 mg/kg/injection, schedule: Q04DX002 (ip), vehicle: Klucel (hydroxypropylcellulose) (HPC) 116 % of control

COc1ccc2oc3cccc(NCCN(C)C)c3c(=O)c2c1
inactive: dose: 25.0 mg/kg/injection, schedule: Q01DX005 (ip), vehicle: Klucel (hydroxypropylcellulose) (HPC) 105 % of control | [1] 100 % of control | [2] 107 % of control | [3] 107 % of control

C1=C(C2=C[P+](c3ccccc3)(c3ccccc3)C=C(c3ccccc3)O2)OC(c2ccccc2)=C[P+]1(c1ccccc1)c1ccccc1
inactive: dose: 12.5 mg/kg/injection, schedule: Q01DX005 (ip), vehicle: saline with Tween-80 103 % of control | [6] 100 % of control

NC(Cc1csc2ccc(Cl)cc12)C(=O)O (stereo unspecified)
inactive: dose: 50.0 mg/kg/injection, schedule: Q01DX001 (ip), vehicle: Klucel (hydroxypropylcellulose) (HPC) 102 % of control | [7] 100 % of control

C1[Se]CC12C[Se]C2
inactive: dose: 20.0 mg/kg/injection, schedule: Q01DX009 (ip), vehicle: saline with Tween-80 105 % of control

CC(=O)C[n+]1ccccc1Cc1ccccc1
inactive: [6] 99 % of control | [4] 100 % of control

C=CC(C)(C)c1c(OC)cc(-c2ccccc2)oc1=O
inactive: dose: 8.0 mg/kg/injection, schedule: Q01DX005 (ip), vehicle: Klucel + Tween-80 103 % of control | dose: 16.0 mg/kg/injection, schedule: Q01DX005 (ip), vehicle: Klucel + Tween-80 103 % of control | dose: 32.0 mg/kg/injection, schedule: Q01DX005 (ip), vehicle: Klucel + Tween-80 109 % of control | dose: 64.0 mg/kg/injection, schedule: Q01DX005 (ip), vehicle: Klucel + Tween-80 107 % of control

C=CCC12CC(O)C(O)CC1(O)OC(c1cc(OC)c(OC)c(OC)c1)C2C (stereo unspecified)
inactive: dose: 1.25 mg/kg/injection, schedule: Q01DX005 (ip), vehicle: acid diluted with saline 115 % of control | dose: 2.5 mg/kg/injection, schedule: Q01DX005 (ip), vehicle: acid diluted with saline 102 % of control | dose: 5.0 mg/kg/injection, schedule: Q01DX005 (ip), vehicle: acid diluted with saline 100 % of control | dose: 10.0 mg/kg/injection, schedule: Q01DX005 (ip), vehicle: acid diluted with saline 93 % of control

C=C(C)C1(C)CC1c1ccncc1 (stereo unspecified)
inactive: [6] 102 % of control | [4] 103 % of control | [5] 94 % of control

CCCCCCOCCOCCCN1C(=O)C2C3C=CC(C3)C2(Cl)C1=O (stereo unspecified)
inactive: dose: 50.0 mg/kg/injection, schedule: Q01DX005 (ip), vehicle: distilled water + Tween-80 + alcohol 102 % of control | dose: 100.0 mg/kg/injection, schedule: Q01DX005 (ip), vehicle: distilled water + Tween-80 + alcohol 105 % of control | dose: 200.0 mg/kg/injection, schedule: Q01DX005 (ip), vehicle: distilled water + Tween-80 + alcohol 100 % of control

CCCCN1C(=O)C(=O)N(c2ccccc2)C1=O
inactive: [8] 102 % of control | [9] 102 % of control | [10] 94 % of control

CCC1(C)N=C(N)Nc2nc3cc(C)c(C)cc3n21 (stereo unspecified)
inactive: [11] 92 % of control | [12] 91 % of control | [13] 92 % of control and 94 % of control

COC(SC)(C(=O)O)c1cc(-c2c(Cl)cccc2Cl)no1 (stereo unspecified)
inactive: [8] 96 % of control | [9] 93 % of control | [10] 112 % of control

Cc1ccccc1C(=O)N1C(=O)Cc2ccccc21
inactive: [7] 97 % of control | dose: 200.0 mg/kg/injection, schedule: Q01DX001 (ip), vehicle: Klucel (hydroxypropylcellulose) (HPC) 91 % of control | dose: 400.0 mg/kg/injection, schedule: Q01DX001 (ip), vehicle: Klucel (hydroxypropylcellulose) (HPC) 90 % of control

CCC(/C=C/c1ccccc1)=N\NC(=O)c1ccc(Cl)cc1
inactive: [8] 101 % of control | [9] 96 % of control | [10] 105 % of control

O=C(OCCOc1ccc(C(F)(F)F)cc1[N+](=O)[O-])c1ccc(Cl)cc1Cl
inactive: dose: 15.0 mg/kg/injection, schedule: Q01DX005 (ip), vehicle: saline with Tween-80 90 % of control | dose: 30.0 mg/kg/injection, schedule: Q01DX005 (ip), vehicle: saline with Tween-80 91 % of control | [8] 88 % of control

CCCCCCCCCCCCCCCCCC[N+](C)(C)c1nc(Cl)nc(Cl)n1
inactive: [12] 100 % of control | [13] 91 % of control

O=C(O)Cc1ccc([N+](=O)[O-])cc1[N+](=O)[O-]
inactive: [11] 100 % of control | [12] 92 % of control | [13] 100 % of control | dose: 100.0 mg/kg/injection, schedule: Q01DX009 (ip), vehicle: saline 91 % of control
